According to ChEMBL document CHEMBL4049383, “Emergence of Small-Molecule Non-RGD-Mimetic Inhibitors for RGD Integrins” (J Med Chem, 2017):

Columns and labels:
[1] = molecular target: Integrin alpha-IIb/beta-3 (Homo sapiens, UniProt P05106+P08514)
Description: Displacement of [3H]UR-3189 from integrin alpha2b beta3 receptor in resting human platelet

[2] = Stability of the compound in human microsomes; assay type: ADME, Microsome; conditions: read-out: Stability

Chain of Integrin alpha-IIb/beta-3 (P05106 27-788 limits assumed): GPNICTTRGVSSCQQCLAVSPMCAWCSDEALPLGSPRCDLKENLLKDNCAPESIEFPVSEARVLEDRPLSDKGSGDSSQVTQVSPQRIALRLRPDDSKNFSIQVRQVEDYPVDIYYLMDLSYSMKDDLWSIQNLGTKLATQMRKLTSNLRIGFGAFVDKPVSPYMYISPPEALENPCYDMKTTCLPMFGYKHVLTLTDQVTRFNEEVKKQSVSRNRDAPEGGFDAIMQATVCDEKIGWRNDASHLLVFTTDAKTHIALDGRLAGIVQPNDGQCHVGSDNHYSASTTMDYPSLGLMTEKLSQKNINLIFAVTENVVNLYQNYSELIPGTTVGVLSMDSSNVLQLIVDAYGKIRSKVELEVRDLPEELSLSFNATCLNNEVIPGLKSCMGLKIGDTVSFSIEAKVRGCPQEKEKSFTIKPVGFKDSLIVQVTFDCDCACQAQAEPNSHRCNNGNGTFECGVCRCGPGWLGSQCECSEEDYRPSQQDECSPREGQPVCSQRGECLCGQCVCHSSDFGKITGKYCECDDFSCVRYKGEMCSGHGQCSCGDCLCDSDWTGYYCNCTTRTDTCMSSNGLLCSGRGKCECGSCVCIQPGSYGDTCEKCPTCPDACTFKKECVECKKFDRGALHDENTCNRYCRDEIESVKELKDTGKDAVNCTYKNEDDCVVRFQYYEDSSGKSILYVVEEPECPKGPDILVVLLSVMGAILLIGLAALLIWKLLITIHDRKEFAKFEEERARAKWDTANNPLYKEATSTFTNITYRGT
Chain of Integrin alpha-IIb/beta-3 (P08514 32-887 limits assumed): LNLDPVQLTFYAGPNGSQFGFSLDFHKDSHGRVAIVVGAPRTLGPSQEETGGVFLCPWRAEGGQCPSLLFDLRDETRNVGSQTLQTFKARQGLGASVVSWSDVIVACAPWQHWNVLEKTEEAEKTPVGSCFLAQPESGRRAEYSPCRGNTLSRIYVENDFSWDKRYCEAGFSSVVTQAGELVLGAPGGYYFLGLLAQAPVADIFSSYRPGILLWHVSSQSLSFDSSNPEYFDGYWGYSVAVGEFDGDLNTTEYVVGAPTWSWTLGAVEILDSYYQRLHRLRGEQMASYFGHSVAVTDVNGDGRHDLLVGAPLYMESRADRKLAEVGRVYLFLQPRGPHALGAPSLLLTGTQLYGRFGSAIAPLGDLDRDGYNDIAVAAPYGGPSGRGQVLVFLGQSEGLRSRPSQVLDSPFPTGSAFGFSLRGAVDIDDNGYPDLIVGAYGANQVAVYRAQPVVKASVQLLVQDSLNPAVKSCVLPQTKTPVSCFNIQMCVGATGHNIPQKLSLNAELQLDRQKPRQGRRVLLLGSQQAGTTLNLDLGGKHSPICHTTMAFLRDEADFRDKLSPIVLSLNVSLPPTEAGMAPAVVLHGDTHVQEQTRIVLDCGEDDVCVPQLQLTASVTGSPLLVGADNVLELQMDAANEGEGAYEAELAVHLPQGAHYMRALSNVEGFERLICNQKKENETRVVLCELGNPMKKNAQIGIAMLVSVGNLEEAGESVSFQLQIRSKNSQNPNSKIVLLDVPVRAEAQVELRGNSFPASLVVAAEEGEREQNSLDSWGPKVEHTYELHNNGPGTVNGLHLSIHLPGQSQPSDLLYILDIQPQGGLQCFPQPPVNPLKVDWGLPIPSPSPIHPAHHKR
Chain of Integrin alpha-IIb/beta-3 (P08514 891-1039 limits assumed): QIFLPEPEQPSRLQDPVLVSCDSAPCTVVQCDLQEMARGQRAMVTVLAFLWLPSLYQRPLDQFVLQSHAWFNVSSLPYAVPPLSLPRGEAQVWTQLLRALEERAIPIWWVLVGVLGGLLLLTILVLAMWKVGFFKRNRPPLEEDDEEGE

Compound	Ki [1] [nM]	microsomal CLint [2] [µL/min/mg]
[H]/N=C(\N)c1ccc(C(=O)N[C@@H](Cc2ccc([N+](=O)[O-])cc2)C(=O)N2CCc3nn(CC(=O)O)cc3C2)cc1	< 1	–
NCC(=O)Nc1cncc(-c2nn3c(=O)cc(N4CCNCC4)nc3s2)c1 [ZALUNFIBAN]	–	23.2
